Patent US11185593B2, “Alkylating agent for alkylating target with driver oncogene mutation” (Chiba Prefecture, priority 2013, dated 2021)

What was measured:
[1] = tested on: LS180 cells; assay: Analysis of change in cell cycle (propidium iodide, flow cytometry); assay type: cell-based, human; conditions: LS180, 50 nM, FIG. 10A; for change in cell cycle: 72 hours; for change in cell cycle, Sub G1 stage (cell death): long-term treatment (14 days)
Protocol: In order to observe a cell cycle, treated cells and untreated cells were each washed with DNase-free PBS twice, and were then immobilized with 70% ethanol (frozen). The immobilized cells were treated with PBS containing 10 µg/mL RNaseA and 50 µg/mL propidium iodide, while they were left in a dark place at room temperature for 30 minutes. Using an FL-2H filter of FACS Calibur flowcytometer (Becton Dickinson, USA), fluorescence intensity was measured. The rate of cell cycle was determined by analyzing the obtained data using Cell Quest software (Becton Dickinson, USA). Regarding the treatment of cells, LS180 was treated with 50 nM KR12 or KR13 (dissolved in 0.125% DMSO) for 72 hours, and as a long-term treatment experiment, a culture experiment was carried out for 14 days. As a control, the cells were cultured in an MEM medium containing 10% FBS and 0.125% DMSO for 14 days.

[2] = tested on: γH2AX, p53, PARP in LS180 cells; assay: Western analysis of markers of DNA damage and cell death (apoptosis); assay type: cell-based, human; conditions: LS180, 50 nM, 14 days, FIG. 10C
Protocol: LS180 cells, which had been subjected to a long-term treatment experiment and had been treated with 50 nM KR12 or KR13 (dissolved in 0.125% DMSO) for 14 days, were dissolved in a 1×SDS-sample buffer. The obtained solution was treated at 100° C. for 5 minutes. The protein amount was estimated using Bradford reagent (Bio-Rad, CA), and was then electrophoresed by 10% SDS-PAGE. After that, the protein was transferred onto polyvinylidene difluoride membranes (Millipore, MA), and using 5% dry milk in Tris-buffered saline (TBS) plus 0.1% Tween 20 as a blocking agent, anti-γH2AX (2F3, BioLegend, CA), anti-p53 (DO-1, Santa Cruz Biotechnology, CA), anti-PARP (Cell Signaling Technologies, MA), or anti-actin antibody (20-33, Sigma, MO) was added to lanes, and the protein was further treated with HRP-conjugated anti-mouse IgG or anti-rabbit IgG (Cell Signaling Technologies, MA). Before the treatment with a secondary antibody, the primary antibody was washed, as appropriate. Thereafter, the protein was washed with TBS plus 0.1% Tween 20, and it was then identified by […] chemiluminescence (ECL) (Amersham Biosciences, NJ).

[3] = tested on: LS180 cells; assay: Confirmation of cell death (apoptosis) by fragmentation of DNA; assay type: cell-based, human; conditions: LS180, 50 nM, FIG. 10B
Protocol: Regarding the treatment of cells, the LS180 cells were cultured at a cell density of 1.0×10^5 cells/30 mm dish in a culture media of MEM (gibco)+10% FBS (gibco)+100 units/ml Penicillin+100 μg/ml Streptmycin (gibco). Thereafter, the cultured cells were treated with 50 nM KR12 or KR13 (dissolved in 0.125% DMSO) for 72 hours, and also, as a long-term experiment, the cells were treated with KR 12 or KR13 for […]. Thereafter, the cells of different groups were treated with a control MEM medium containing 10% FBS and 0.125% DMSO for 11 days. At the same time, as a control group, the LS180 cells were treated with 10% FBS and 0.125% DMSO for 14 days. Thereafter, the cells of the different groups were treated with trypsin, and were then recovered. The recovered cells were stirred in 50 μl of a PBS solution, and 3 μl of 1.5% Triton X (in water) and 3 μl of an RNase (1 mg/ml in water) were then added to the reaction solution. The mixed solution was treated at 37° C. for 30 minutes. Subsequently, 3 μl of proteinase K (1 mg/ml) was added to the reaction solution, and the obtained mixture was then treated at 37° C. for 30 minutes. Subsequently, 12 μl of 6× loading buffer was further added to the reaction solution, and the obtained mixture was treated at 65° C. for 10 minutes. Immediately after the treatment, 20 μl of the reaction solution was electrophoresed on 2% agarose gel in TBE at 100 V, and the gel was then stained with ethidium.

[4] = tested on: SW480 (KRAS-MUThomo); assay: Suppression of tumor growth in nude mice, SW480 transplanted; assay type: in vivo; conditions: nude mice with SW480 cells; for cancer tumor-inhibitory effect / tumor growth suppression: comparison KR12, KR13, seco CBI, FIG. 15
Protocol: The below-mentioned 3 types of PBS solutions containing each type of cells were subcutaneously transplanted into the femurs of nude mice (i.e., HT29 into 7 mice, LS180 into 7 mice, and SW480 into 6 mice), and thereafter, at a time point in which a tumor adhered to the living body of each mouse and the tumor volume became approximately 100 mm^3, a drug was prepared with a composition of 3.4 mmol KR12 (1.36 mM KR12 dissolved in 2.5 μL of DMSO and 197.5 μL of PBS), or of a DMSO/PBS control (2.5 μL of DMSO and 197.5 μL of PBS). The prepared drug was subjected to sonication for 10 minutes, and 200 μL of the drug was administered to each mouse via the caudal vein thereof. The body weight and the tumor size were measured once three days, and the size of the tumor was measured by the method of 0.52×L×W×D(1/6×π×L×W×D).
SW480 (KRAS-MUThomo): (transplanted in an amount of 5×10^6 cells/100 μl PBS into the subcutis of each mouse; a cell line having a […] KRAS gene codon 12 mutation G12V)
Using, as controls, PIP-indole-seco-CBI (KR13) not recognizing a codon 12 mutation and 8.4 mmol seco CBI (3.36 mM CBI dissolved in 2.5 μL of DMSO and 197.5 μL of PBS), instead of the DMSO/PBS control, an experiment was carried out by the same method as that of the above section 11.

Structure (SMILES) | change in cell cycle [1] | change in cell cycle, Sub G1 stage (cell death) [1] | induction of DNA damage and cell death [2] | DNA fragmentation ([3]; 72-hour-treated groups) | DNA fragmentation ([3]; long-term treatment) | cancer tumor-inhibitory effect / tumor growth suppression [4] | DNA damage marker γH2AX [2] | cleavage of the PARP protein [2] | induction of p53 [2] | tumor size ([4]; 3.4 mmol KR12 via the caudal vein, FIG. 14C) | size of the tumor ([4]; 2 months after the administration) | state of the tumor ([4]; 3 months after the administration)
CC(=O)Nc1cn(C)c(C(=O)Nc2cn(C)c(C(=O)Nc3cc(C(=O)Nc4cn(C)c(C(=O)NCCC(=O)Nc5cc(C(=O)Nc6cn(C)c(C(=O)NCCCC(=O)Nc7cc(C(=O)Nc8cn(C)c(C(=O)Nc9cc(C(=O)NCCC(=O)Nc%10cc(C(=O)Nc%11ccc%12[nH]c(C(=O)N%13CC(CCl)c%14c%13cc(O)c%13ccccc%14%13)cc%12c%11)n(C)c%10)n(C)c9)n8)n(C)c7)n6)n(C)c5)n4)n(C)c3)n2)n1 (centres unmarked) [KR13] | the cells at the S phase and the G2M phase were slightly increased | an increase in the cell at the Sub G1 phase was not significant | significant induction of DNA damage and cell death was not observed | DNA fragmentation was not observed | DNA fragmentation was not observed | impossible | – | – | – | – | – | –
CC(=O)Nc1cn(C)c(C(=O)Nc2cc(C(=O)NCCC(=O)Nc3cn(C)c(C(=O)Nc4cn(C)c(C(=O)Nc5cc(C(=O)Nc6cn(C)c(C(=O)NCCCC(=O)Nc7cc(C(=O)Nc8cn(C)c(C(=O)NCCC(=O)Nc9cc(C(=O)Nc%10cc(C(=O)Nc%11ccc%12[nH]c(C(=O)N%13CC(CCl)c%14c%13cc(O)c%13ccccc%14%13)cc%12c%11)n(C)c%10)n(C)c9)n8)n(C)c7)n6)n(C)c5)n4)n3)n(C)c2)n1 (centres unmarked) [KR12] | the LS180 cells at the S stage were increased | the cells at the Sub G1 stage were significantly increased | – | DNA fragmentation was not observed | DNA fragmentation induced by cell death was observed | significantly higher than in the case of administration of KR13 | induced | the cleavage of the PARP protein was observed | induction of p53 was also observed | significantly reduced | significantly reduced | an extremely small and hard induration
